From ChEMBL document CHEMBL3872207, “Aromatic heterocyclic esters of podophyllotoxin exert anti-MDR activity in human leukemia K562/ADR cells via ROS/MAPK signaling pathways” (Eur J Med Chem, 2016)

Legend:
[1] = Antiproliferative activity against human K562/ADR cells measured after 72 hrs by CCK8 assay; type: functional, cell-based
[2] = Antiproliferative activity against human K562 cells measured after 72 hrs by CCK8 assay; type: functional, cell-based; conditions: K562, 72 h
[3] = tested on: K562; assay: Resistance index, ratio of IC50 for human K562/ADR cells to IC50 for human K562 cells; type: functional
[4] = Potency index, ratio of doxorubicin IC50 to compound IC50 for antiproliferative activity against human K562/ADR cells; type: functional
[5] = Potency index, ratio of etoposide IC50 to compound IC50 for antiproliferative activity against human K562/ADR cells; type: functional

Row | SMILES | IC50 [1] [nM] | IC50 [2] [nM] | Ratio IC50 [3] | Ratio IC50 [4] | Ratio IC50 [5]
1 | COc1cc([C@@H]2c3cc4c(cc3[C@H](OC(=O)c3cc(C)on3)[C@H]3COC(=O)[C@H]23)OCO4)cc(OC)c1OC | 52 | 25 | 2.08 |  | 
2 | COc1cc([C@@H]2c3cc4c(cc3[C@@H](O[C@@H]3O[C@@H]5CO[C@@H](C)O[C@H]5[C@H](O)[C@H]3O)[C@H]3COC(=O)[C@H]23)OCO4)cc(OC)c1O [ETOPOSIDE] | 2210 | 345 | 6.408 |  | 
3 | COc1cc([C@@H]2c3cc4c(cc3[C@H](OC(=O)c3nn(C)c5ccccc35)[C@H]3COC(=O)[C@H]23)OCO4)cc(OC)c1OC | 115 | 47 | 2.446 |  | 
4 | COc1cc([C@@H]2c3cc4c(cc3[C@H](OC(=O)c3cc5ccccc5s3)[C@H]3COC(=O)[C@H]23)OCO4)cc(OC)c1OC | 466 | 184 | 2.532 |  | 
5 | COc1cc([C@@H]2c3cc4c(cc3[C@H](OC(=O)c3nccc5ccccc35)[C@H]3COC(=O)[C@H]23)OCO4)cc(OC)c1OC | 177 | 64 | 2.765 |  | 
6 | COc1cc([C@@H]2c3cc4c(cc3[C@H](OC(=O)c3cn(C)cn3)[C@H]3COC(=O)[C@H]23)OCO4)cc(OC)c1OC | 858 | 79 | 10.86 |  | 
7 | COc1cc([C@@H]2c3cc4c(cc3[C@H](OC(=O)c3cnc5ccccc5n3)[C@H]3COC(=O)[C@H]23)OCO4)cc(OC)c1OC | 34 | 22 | 1.545 | 552.323 | 65.029
8 | COc1cc([C@@H]2c3cc4c(cc3[C@H](OC(=O)c3cscn3)[C@H]3COC(=O)[C@H]23)OCO4)cc(OC)c1OC | 74 | 35 | 2.114 |  | 
9 | COc1cc([C@@H]2c3cc4c(cc3[C@H](OC(=O)c3cn(C5CC5)c5cc(Cl)c(F)cc5c3=O)[C@H]3COC(=O)[C@H]23)OCO4)cc(OC)c1OC | 550 | 305 | 1.803 |  | 
10 | COc1cc([C@@H]2c3cc4c(cc3[C@H](OC(=O)c3ccc5nc(C)ccc5c3)[C@H]3COC(=O)[C@H]23)OCO4)cc(OC)c1OC | 61 | 64 | 0.953 |  | 
11 | COc1cc([C@@H]2c3cc4c(cc3[C@H](OC(=O)c3cnn(C)c3)[C@H]3COC(=O)[C@H]23)OCO4)cc(OC)c1OC | 139 | 52 | 2.673 |  | 
12 | COc1cccc2c1C(=O)c1c(O)c3c(c(O)c1C2=O)C[C@@](O)(C(=O)CO)C[C@@H]3O[C@H]1C[C@H](N)[C@H](O)[C@H](C)O1 [DOXORUBICIN] | 18800 | 220 | 85.359 |  | 
